Results: US20050112128A1, “Inhibition of protein kinase c-mu (PKD) as a treatment for cardiac hypertrophy and heart failure” (Myogen, Inc. and Board of Regents, The University of Texas …, priority 2003, published 2005)
“Also recorded” adds a separate entry of the source.

What was measured:
[1] = tested on: nuclear export of GFP-HDAC5 in NRVMs; test: Quantitative HDAC5 nuclear export assay in NRVMs (Cellomics High Content Imaging System); type: cell-based, rat; conditions: NRVMs, 2 hrs, inhibitor pre-treatment 30 min; for block of PE-induced nuclear export of HDAC5: PE 20 μM, KN93, wortmannin, staurosporine 1 mM, U1026, HA1077, Y-27632, DAG Kinase inhibitor II, SB216763, Bis I 10 mM, rapamycin 30 ng/ml, Gö6983 10 μM
HDAC5-bound PKD = type: biochemical, rat
PKD [2] = biological target: T1, PKD (Homo sapiens, UniProt Q15139); conditions: literature (Van Lint 2002; Gschwendt 1996; Haworth); cited from earlier work
T1 sequence (Q15139 1-912): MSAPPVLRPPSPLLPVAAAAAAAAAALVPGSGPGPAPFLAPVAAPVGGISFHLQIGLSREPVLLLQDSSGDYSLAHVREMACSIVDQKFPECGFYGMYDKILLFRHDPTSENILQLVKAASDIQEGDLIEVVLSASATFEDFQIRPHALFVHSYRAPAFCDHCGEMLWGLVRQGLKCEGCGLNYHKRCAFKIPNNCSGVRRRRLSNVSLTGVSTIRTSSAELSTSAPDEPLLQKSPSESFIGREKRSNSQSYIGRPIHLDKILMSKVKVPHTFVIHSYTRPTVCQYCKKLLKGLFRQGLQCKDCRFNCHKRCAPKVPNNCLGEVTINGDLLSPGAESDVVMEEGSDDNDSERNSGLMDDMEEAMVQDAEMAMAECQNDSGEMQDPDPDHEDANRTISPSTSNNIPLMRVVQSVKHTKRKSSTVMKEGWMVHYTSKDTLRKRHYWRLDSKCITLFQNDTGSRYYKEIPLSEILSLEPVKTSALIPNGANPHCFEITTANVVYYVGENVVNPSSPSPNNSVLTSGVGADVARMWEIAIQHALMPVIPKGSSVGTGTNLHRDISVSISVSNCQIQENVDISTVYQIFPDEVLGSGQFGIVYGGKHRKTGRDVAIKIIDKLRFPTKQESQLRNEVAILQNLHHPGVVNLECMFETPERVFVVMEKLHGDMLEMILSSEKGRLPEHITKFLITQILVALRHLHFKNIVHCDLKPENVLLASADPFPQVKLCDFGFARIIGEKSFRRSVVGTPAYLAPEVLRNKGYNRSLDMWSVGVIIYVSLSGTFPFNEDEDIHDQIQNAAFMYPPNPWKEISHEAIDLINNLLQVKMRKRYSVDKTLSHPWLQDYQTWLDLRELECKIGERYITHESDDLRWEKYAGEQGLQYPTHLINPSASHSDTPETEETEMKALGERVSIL

[3] = tested on: nuclear export of HDAC5 in COS cells; test: GFP-HDAC5 nuclear export in transfected COS cells (fluorescence microscopy); type: cell-based
Method: (§1) FIGS. 1A-D—PKC-dependent nuclear export of HDAC5. FIG. 1A. COS cells were cultured on 6-well dishes, transfected with a GFP-HDAC5 expression vector (1 μg) and stimulated with the indicated compounds, as described in Materials and Methods. Sixty minutes after addition of compounds, GFP-HDAC5 distribution was determined by fluorescence microscopy. […] FIG. 1B. COS cells were transfected with expression vectors encoding FLAG-tagged versions of either HDAC5 or an HDAC5 mutant harboring alanines in place of serines 259 and 498 (HDAC5 S259/498A) (1 μg each). Cells were stimulated with PMA for 60 min and HDAC5 distribution was determined by indirect immunofluorescence with anti-FLAG primary antibody and fluorecein-conjugated secondary antibody. HDAC5 259/498A is refractory to PMA stimulation. FIG. 1C. COS cells transfected with GFPHDAC5 encoding expression vector (1 μg) and stimulated with PMA for the indicated times. FIG. 1D. COS cells were transiently transfected with expression vectors encoding FLAG-tagged versions of HDAC5 or HDAC5 S259/498A (1 μg each). Cells were pretreated with the PKC inhibitor bisindolylmaleimide (Bis I; 10 μM) for 30 minutes and stimulated with PMA for 30 min, as indicated. Association of FLAG-HDAC5 with endogenous 14-3-3 was detected by sequential immunoprecipitation and immunoblotting.
Cell culture and transfection assays. COS cells were maintained in DMEM with FBS (10%), L-glutamine (2 mM), and penicillin-streptomycin. Transfection of COS cells was performed with Fugene 6 (Roche Molecular Biochemicals) according to manufacturer's instructions. For HDAC localization experiments, cells were treated 16-24 hours after transfection with PMA (100 nM), ionomycin […], 8-Br-cAMP (1 mM), pCPT-GMP (1 mM), or anisomycin (1 mM). Where noted, specific protein kinase inhibitors were added 30 min prior to the addition of any chemical stimulus. GFP-HDAC5 was visualized with standard fluorescent microscopic techniques. For indirect immunofluorescence of FLAG-HDAC5, COS cells were seeded on glass coverslips, transfected, and treated as above. After specific treatment, cells were fixed with buffered formalin (10%) and stained in PBS containing BSA (3%) and Nonidet P-40 (0.1%). Flag M2 antibody (Sigma) was used at a concentration of 1:200. Secondary fluoresceine-conjugated antibody (Vector Laboratories) was also used at a concentration of 1:200. Staining of cardiomyocytes for sarcomeres and atrial natriuretic factor (ANF) was performed by indirect immunofluorescence detection as above with antibodies directed against sarcomeric α-actinin (Sigma) and ANF (Peninsula Laboratories), respectively.

NRVMs = test: ANF immunostaining of cardiomyocytes (hypertrophy marker); type: cell-based, rat; conditions: PE 20 μM or PMA 100 nM, 24 hrs
Method: FIGS. 3A-C—Inhibition of PKC-mediated cardiac hypertrophy by signalresistant HDAC5. NRVMs were cultured on 6-well dishes and infected with adenoviruses (MOI=10) encoding a LacZ control (Ad-LacZ) or FLAG-tagged HDAC5 harboring alanines in place of serines 259 and 498 (Ad-HDAC5 S/A), which are required for 14-3-3-mediated nuclear export. Cells were treated with PE (20 μM) or PMA (100 nM) for 24 hrs prior to analysis. FIG. 3A. Cells were fixed and sarcomeres visualized by indirect immunofluorescence with primary antibody specific for α-actinin and fluorescein-conjugated secondary antibody. FIG. 3B. ANF protein was detected by indirect immunofluorescence with anti-ANF primary antibody. FIG. 3C. Total RNA was harvested from cells and subjected to dot blot analysis with radiolabeled oligonucleotides specific for the indicated transcripts. RNA levels were quantified using a phosphorimager and are depicted as -fold change relative to amounts in unstimulated cells infected with Ad-LacZ. Values were normalized to GAPDH controls.
Cell culture and transfection assays. COS cells were maintained in DMEM with FBS (10%), L-glutamine (2 mM), and penicillin-streptomycin. Transfection of COS cells was performed with Fugene 6 (Roche Molecular Biochemicals) according to manufacturer's instructions. […]

PKD [4] = test: In vitro kinase assay with FLAG-HDAC5 immunoprecipitated from COS cells co-transfected with PKD; type: cell-based; conditions: PMA 30 min
Excerpt: FIGS. 5A-E—Protein kinase D is an HDAC5 kinase. FIG. 5A. Amino acid sequences surrounding the regulatory phosphorylation sites of class II HDACs. NLS: nuclear localization signal; HDAC domain: deacetylase catalytic domain. The consensus target site for PKD is shown. Leucine at position −5 relative the phosphorylation site is required for optimal PKD-directed phosphorylation of other proteins. FIG. 5B. COS cells were transfected with an expression vector encoding GFP fused to HDAC5 harboring glycines in place of leucines 254 and 493 (L254/493G). Twenty-four hrs post-transfection, cells were left untreated (control) or stimulated with PMA for 30 minutes. FIG. 5C. […] HDAC5 localization was determined 24 hrs post-transfection. FIG. 5D. […] Twenty-four hrs post-transfection, cells were treated with PMA or vehicle control for 30 min. FLAG-HDAC5 was immunoprecipitated from whole-cell protein lysates and either incorporated into an in vitro kinase assay (IVK) or resolved by SDS-PAGE for western blot analysis to detect associated PKD, as indicated. Phosphorylated HDAC5 was resolved by SDS-PAGE and detected by autoradiography. FIG. 5E. Mammalian two-hybrid assay. […]

[5] = tested on: association of 14-3-3 with HDAC5; test: Co-immunoprecipitation of FLAG-HDAC5 with endogenous 14-3-3 in COS cells; type: cell-based; conditions: FLAG-HDAC5, PMA 30 min
Method: as §1, with “COS cells were transiently transfected with expression vectors encoding FLAG-tagged versions of HDAC5 or HDAC5 S259/498A (1 μg each). Cells were pretreated with the PKC inhibitor bisindolylmaleimide (Bis I; 10 μM) for 30 minutes and stimulated with PMA for 30 min, as indicated.” left out
Co-immunoprecipitation assays. […] Associated PKD was detected by immunoblotting with rabbit polyclonal antibodies against either PKD-1, PKD-1 phosphorylated at serines 744 and 748, or PKD-1 phosphorylated at serine 916 (Cell Signaling Technologies) were employed at 1:1000 dilutions.

SMILES: CN(C)CCCn1cc(C2=C(c3c[nH]c4ccccc34)C(=O)NC2=O)c2ccccc21 [Bis I, bisindolylmaleimide I]
- block of ET-1-induced nuclear export of HDAC5 ([1]; ET-1 50 nM): had no effect
- block of FBS-induced nuclear export of HDAC5 ([1]; FBS 10%): had no effect
- block of PE-induced nuclear export of HDAC5 [1]: effective in blocking PE-dependent export of HDAC5; also recorded: inhibitory effect on PE-dependent HDAC5 nuclear export; also recorded: effective in blocking HDAC5 nuclear export
- block of HDAC5 phosphorylation, inhibitor given to cells before PMA (HDAC5-bound PKD; NRVMs pre-treated 30 min with 10 μM inhibitor (pre-Bis I)): Phosphorylation of HDAC5 was blocked
- sensitivity of PKD to the inhibitor (PKD [2]): not to Bis I or Gö6983

SMILES: CN(C)CCCn1cc(C2=C(c3c[nH]c4ccccc34)C(=O)NC2=O)c2ccccc21 [GF I]
- sensitivity of PKD to the inhibitor (PKD [2]): insensitive

SMILES: COc1ccc2c(c1)c(C1=C(c3c[nH]c4ccccc34)C(=O)NC1=O)cn2CCCN(C)C [Go6983]
- block of PE-induced nuclear export of HDAC5 [1]: inhibiting HDAC5 nuclear export in response to PE
- sensitivity of PKD to the inhibitor (PKD [2]): not to Bis I or Gö6983

SMILES: CCCCCCCCCCCCCC(=O)O[C@@H]1[C@@H](C)[C@@]2(O)[C@@H](C=C(CO)C[C@]3(O)C(=O)C(C)=C[C@@H]23)[C@@H]2C(C)(C)[C@]12OC(C)=O [PMA, Phorbol 12-myristate 13-acetate]
- stimulation of nuclear export of GFP-HDAC5 ([3]; COS cells transfected with GFP-HDAC5, 60 min after addition of compounds): complete relocalization of GFP-HDAC5 from the nucleus to the cytoplasm; also recorded: stimulated nuclear export of GFP-HDAC5; also recorded: more potent stimulator of export than ionomycin
- time to complete HDAC5 nuclear export following addition of PMA ([3]; COS cells, GFP-HDAC5): ≤ 30 min
- time to initiation of HDAC5 nuclear export following addition of PMA ([3]; COS cells, GFP-HDAC5): ≤ 15 min
- ANF protein expression (NRVMs): prominent perinuclear ANF protein expression
- HDAC5 phosphorylation after treatment of cells with PMA (HDAC5-bound PKD; NRVMs infected with Ad-FLAG-HDAC5, PMA 30 min): Increased HDAC5 phosphorylation
- HDAC5 phosphorylation after PMA, activated PKD S/E co-transfected (PKD [4]; FLAG-HDAC5 + PKD S/E): enhanced phosphorylation of HDAC5
- HDAC5 phosphorylation after PMA, wild-type PKD co-transfected (PKD [4]; FLAG-HDAC5 + PKD): increased the degree of HDAC5 phosphorylation
- association of 14-3-3 with HDAC5 [5]: enhanced

SMILES: Cn1cc(C2=C(c3cn(CCCSC(=N)N)c4ccccc34)C(=O)NC2=O)c2ccccc21 [Ro 31-8220]
- sensitivity of PKD to the inhibitor (PKD [2]): insensitive
